Assay results as given in patent US11840527B2, “Non-fused thiophene derivatives and their uses” (ENYO PHARMA, priority 2018, dated 2023).
Structures can show the parent of a compound that is named as a salt.

System: H1N1 (influenza A/New Caledonia/20/99)
Assay: Antiviral effect on A549 cells infected with H1N1
Format: cell-based, H1N1 A/New Caledonia/20/99 virus
Details: Influenza A virus, MOI 0.1, 48 h post-infection, MUNANA neuraminidase readout
Procedure: The antiviral effect of the compounds of the invention have been tested on A549 cell lines infected with H1N1 (influenza A/New Caledonia/20/99).
Human A549 cells (80,000 cells/well in a 96 well plate) were treated with a range of concentration of test compounds and immediately infected by H1N1 A/New Caledonia/20/99 virus (clinical isolate) at MOI of 0.1 in DMEM/1% Penicillin/streptomycin supplemented with […] TPCK trypsin (Sigma) and incubated at 37° C. in 5% CO2. 48 h post-infection, supernatants (25 μl) were collected and transferred into a 96-well black flat-bottom plate, mixed with 25 μl PBS with Ca++/Mg++ (Thermo Fisher) and 50 μl of 2′-(4-Methylumbelliferyl)-ax-D-N-acetylneuraminic acid sodium salt hydrate stock-solution (20 μM, MUNANA, Sigma). Plates were incubated 1h at 37° C. and reaction is stopped by adding 100 μl of Stop Solution (glycine 0.1 M pH10.7/25% ethanol). The amount of fluorescent product released by MUNANA hydrolysis (4-MU) was measured in a Tecan spectrophotometer with excitation and emission wavelengths of 365 and 450 nm respectively.

O=C(Nc1scc(C2CCCC2)c1C(=O)O)c1cccc(N2CCOCC2)c1 [Compound #71, 4-Cyclopentyl-2-[(3-morpholinobenzoyl)amino]thiophene-3-carboxylic acid]
IC50: 130 nM

O=C(Nc1scc(C2COc3ccccc3C2)c1C(=O)O)c1ccccc1 (stereo not drawn) [Compound #84, 2-Benzamido-4-chroman-3-yl-thiophene-3-carboxylic acid]
IC50: 287 nM

O=C(Nc1scc(C2CCc3ccccc3O2)c1C(=O)O)c1ccccc1 (stereo not drawn) [Compound #85, 2-Benzamido-4-chroman-2-yl-thiophene-3-carboxylic acid]
IC50: 506 nM

O=C(Nc1scc(C2CC2)c1C(=O)O)c1ccccc1 [Compound #87, 2-Benzamido-4-cyclopropyl-thiophene-3-carboxylic acid]
IC50: 810 nM

COC1CN(c2ccc(C(=O)Nc3scc(C4CC4)c3C(=O)O)cc2)C1 [Compound #88, 4-Cyclopropyl-2-[[4-(3-methoxyazetidin-1-yl)benzoyl]amino]thiophene-3-carboxylic acid]
IC50: 500 nM

O=C(Nc1scc(C2CC2)c1C(=O)O)c1ccc(NCC2CCOCC2)cc1 [Compound #90, 4-Cyclopropyl-2-[[4-(tetrahydropyran-4-ylmethylamino)benzoyl]amino]thiophene-3-carboxylic acid]
IC50: 240 nM

CC(C)(C)c1csc(NC(=O)c2ccc(NCC3CCOCC3)cc2)c1C(=O)O [Compound #91, 4-Tert-butyl-2-[[4-(tetrahydropyran-4-ylmethylamino)benzoyl]amino]thiophene-3-carboxylic acid]
IC50: 120 nM

COC1CN(c2ccc(C(=O)Nc3scc(C(C)(C)C)c3C(=O)O)cc2)C1 [Compound #92, 4-tert-Butyl-2-[[4-(3-methoxyazetidin-1-yl)benzoyl]amino]thiophene-3-carboxylic acid]
IC50: 260 nM

COCCOc1ccc(C(=O)Nc2scc(C3COc4ccccc4C3)c2C(=O)O)cc1 (stereo not drawn) [Compound #95, 4-Chroman-3-yl-2-[[4-(2-methoxyethoxy)benzoyl]amino]thiophene-3-carboxylic acid]
IC50: 610 nM

CC(C)Cc1csc(NC(=O)c2ccccc2)c1C(=O)O [Compound #96, 2-Benzamido-4-isobutyl-thiophene-3-carboxylic acid]
IC50: 610 nM

COC1CN(c2ccc(C(=O)Nc3scc(C4CCC4)c3C(=O)O)cc2)C1 [Compound #97, 4-Cyclobutyl-2-[[4-(3-methoxyazetidin-1-yl)benzoyl]amino]thiophene-3-carboxylic acid]
IC50: 110 nM

O=C(Nc1scc(C2CCC2)c1C(=O)O)c1ccccc1 [Compound #98, 2-Benzamido-4-cyclobutyl-thiophene-3-carboxylic acid]
IC50: 610 nM

O=C(Nc1scc(C2CCC2)c1C(=O)O)c1ccc(NCC2CCOCC2)cc1 [Compound #99, 4-Cyclobutyl-2-[[4-(tetrahydropyran-4-ylmethylamino)benzoyl]amino]thiophene-3-carboxylic acid]
IC50: 14 nM

COC1CN(c2ccc(C(=O)Nc3sc(C)c(C)c3C(=O)O)cc2)C1 [Compound #100, 2-[[4-(3-Methoxyazetidin-1-yl)benzoyl]amino]-4,5-dimethyl-thiophene-3-carboxylic acid]
IC50: 44.5 nM

Cc1sc(NC(=O)c2ccc(NCC3CCOCC3)cc2)c(C(=O)O)c1C [Compound #102, 4,5-Dimethyl-2-[[4-(tetrahydropyran-4-ylmethylamino)benzoyl]amino]thiophene-3-carboxylic acid]
IC50: 820 nM

COCCNc1ccc(C(=O)Nc2scc(C(C)(C)C)c2C(=O)O)cc1 [Compound #103, 4-tert-Butyl-2-[[4-(2-methoxyethylamino)benzoyl]amino]thiophene-3-carboxylic acid]
IC50: 460 nM

CCOC1CN(c2ccc(C(=O)Nc3scc(C(C)(C)C)c3C(=O)O)cc2)C1 [Compound #104, 4-tert-Butyl-2-[[4-(3-ethoxyazetidin-1-yl)benzoyl]amino]thiophene-3-carboxylic acid]
IC50: 240 nM

CC(C)(C)c1csc(NC(=O)c2ccc(NC3CCOCC3)cc2)c1C(=O)O [Compound #105, 4-tert-Butyl-2-[[4-(tetrahydropyran-4-ylamino)benzoyl]amino]thiophene-3-carboxylic acid]
IC50: 680 nM

O=C(Nc1scc(C2CC(F)(F)C2)c1C(=O)O)c1ccc(NCC2CCOCC2)cc1 [Compound #106, 4-(3,3-Difluorocyclobutyl)-2-[[4-(tetrahydropyran-4-ylmethylamino)benzoyl]amino]thiophene-3-carboxylic acid]
IC50: 350 nM

COC1CN(c2ccc(C(=O)Nc3scc(C4CC(F)(F)C4)c3C(=O)O)cc2)C1 [Compound #107, 4-(3,3-Difluorocyclobutyl)-2-[[4-(3-methoxyazetidin-1-yl)benzoyl]amino]thiophene-3-carboxylic acid]
IC50: 460 nM

COCCNc1ccc(C(=O)Nc2scc(C3(C)CC3)c2C(=O)O)cc1 [Compound #108, 2-[[4-(2-Methoxyethylamino)benzoyl]amino]-4-(1-methylcyclopropyl)thiophene-3-carboxylic acid]
IC50: 560 nM

COC1CN(c2ccc(C(=O)Nc3scc(CC(C)C)c3C(=O)O)cc2)C1 [Compound #109, 4-iso-Butyl-2-[[4-(3-methoxyazetidin-1-yl)benzoyl]amino]thiophene-3-carboxylic acid diethylamine salt]
IC50: 200 nM

CC(C)(C)c1csc(NC(=O)c2cccc(NCC3CCOCC3)c2)c1C(=O)O [Compound #110, 4-tert-Butyl-2-[[3-(tetrahydropyran-4-ylmethylamino)benzoyl]amino]thiophene-3-carboxylic acid]
IC50: 820 nM

COC1CN(c2ccc(C(=O)Nc3scc(C4(C)CC4)c3C(=O)O)cc2)C1 [Compound #112, 2-[[4-(3-Methoxyazetidin-1-yl)benzoyl]amino]-4-(1-methylcyclopropyl) thiophene-3-carboxylic acid]
IC50: 380 nM

CC(C)Cc1csc(NC(=O)c2ccc(NCC3CCOCC3)cc2)c1C(=O)O [Compound #113, 4-Isobutyl-2-[[4-(tetrahydropyran-4-ylmethylamino)benzoyl]amino]thiophene-3-carboxylic acid]
IC50: 120 nM

COC1CN(c2ccc(C(=O)Nc3sc(C(C)C)c(C)c3C(=O)O)cc2)C1 [Compound #114, 5-Isopropyl-2-[[4-(3-methoxyazetidin-1-yl)benzoyl]amino]-4-methyl-thiophene-3-carboxylic acid diethylamine salt]
IC50: 510 nM

COC1CN(c2ccc(C(=O)Nc3scc(C4(C)CCC4)c3C(=O)O)cc2)C1 [Compound #115, 2-[[4-(3-Methoxyazetidin-1-yl)benzoyl]amino]-4-(1-methylcyclobutyl) thiophene-3-carboxylic acid]
IC50: 240 nM

COCCOc1ccc(C(=O)Nc2scc(C(C)(C)C)c2C(=O)O)cc1 [Compound #116, 4-tert-Butyl-2-[[4-(2-methoxyethoxy)benzoyl]amino]thiophene-3-carboxylic acid]
IC50: 10 nM

COCCN(C)c1ccc(C(=O)Nc2scc(C(C)(C)C)c2C(=O)O)cc1 [Compound #117, 4-tert-Butyl-2-[[4-[2-methoxyethyl(methyl)amino]benzoyl]amino]thiophene-3-carboxylic acid]
IC50: 76 nM

CC(C)(C)c1csc(NC(=O)c2ccc(NC3CCCOC3)cc2)c1C(=O)O (stereo not drawn) [Compound #118, 4-tert-Butyl-2-[[4-(tetrahydropyran-3-ylamino)benzoyl]amino]thiophene-3-carboxylic acid]
IC50: 200 nM

CC(C)(C)c1csc(NC(=O)c2ccc(NCC3CCCOC3)cc2)c1C(=O)O (stereo not drawn) [Compound #119, 4-tert-Butyl-2-[[4-(tetrahydropyran-3-ylmethylamino)benzoyl]amino]thiophene-3-carboxylic acid]
IC50: 100 nM

CN(CC1CCOCC1)c1ccc(C(=O)Nc2scc(C(C)(C)C)c2C(=O)O)cc1 [Compound #120, 4-tert-Butyl-2-[[4-[methyl(tetrahydropyran-4-ylmethyl)amino]benzoyl]amino]thiophene-3-carboxylic acid]
IC50: 100 nM

COC1CN(c2ccc(C(=O)Nc3scc(C(C)(C)C)c3C(=O)O)c(F)c2)C1 [Compound #121, 4-tert-Butyl-2-[[2-fluoro-4-(3-methoxyazetidin-1-yl)benzoyl]amino]thiophene-3-carboxylicacid]
IC50: 510 nM
